Source: PubChem BioAssay AID2060511 (Molecular Pharmacology Branch, DTP, NCI, 2025)

System: 422866-222-R5-J1-PDC spheroids with HUVEC/MSC, viability
Assay: Anticancer human tumor 422866-222-R5-J1-PDC patient-derived pancreatic adenocarcinoma cell line growth inhibition [GQUAD]
Settings: for IC50: curve of first compound; for viability, T/C: stronger effect = lower value; active = viability on the fitted dose curve at most 10% of control; inactive = the rest
How it was run: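 Multi-cell-type spheroids of tumor cells with HUVEC and mesenchymal stem cells, treated with drug combinations. Concentrations descend in half-log steps from near clinical Cmax, or from 10 microM where Cmax is unknown; viability read-out.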

[1] = second compound 0.0316 µM, first compound 0.0316 µM
[2] = second compound 0.0316 µM, first compound 0.1 µM
[3] = second compound 0.0316 µM, first compound 0.316 µM
[4] = second compound 0.0316 µM, first compound 1 µM
[5] = second compound 0.0316 µM, first compound 3.16 µM
[6] = second compound 0.0316 µM, first compound 10 µM
[7] = second compound 0.1 µM, first compound 0.0316 µM
[8] = second compound 0.1 µM, first compound 0.1 µM
[9] = second compound 0.1 µM, first compound 0.316 µM
[10] = second compound 0.1 µM, first compound 1 µM
[11] = second compound 0.1 µM, first compound 3.16 µM
[12] = second compound 0.1 µM, first compound 10 µM
[13] = second compound 0.316 µM, first compound 0.0316 µM
[14] = second compound 0.316 µM, first compound 0.1 µM
[15] = second compound 0.316 µM, first compound 0.316 µM
[16] = second compound 0.316 µM, first compound 1 µM
[17] = second compound 0.316 µM, first compound 3.16 µM
[18] = second compound 0.316 µM, first compound 10 µM
[19] = second compound 1 µM, first compound 0.0316 µM
[20] = second compound 1 µM, first compound 0.1 µM
[21] = second compound 1 µM, first compound 0.316 µM
[22] = second compound 1 µM, first compound 1 µM
[23] = second compound 1 µM, first compound 3.16 µM
[24] = second compound 1 µM, first compound 10 µM
[25] = second compound 3.16 µM, first compound 0.0316 µM
[26] = second compound 3.16 µM, first compound 0.1 µM
[27] = second compound 3.16 µM, first compound 0.316 µM
[28] = second compound 3.16 µM, first compound 1 µM
[29] = second compound 3.16 µM, first compound 3.16 µM
[30] = second compound 3.16 µM, first compound 10 µM
[31] = second compound 10 µM, first compound 0.0316 µM
[32] = second compound 10 µM, first compound 0.1 µM
[33] = second compound 10 µM, first compound 0.316 µM
[34] = second compound 10 µM, first compound 1 µM
[35] = second compound 10 µM, first compound 3.16 µM
[36] = second compound 10 µM, first compound 10 µM
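Also: spheroids exposed to compounds for seven days before reading.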
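For viability, T/C in this document: percent viability relative to DMSO vehicle control taken as 100%.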

C=CC(=O)N1CCN(c2nc(=O)n(-c3c(C)ccnc3C(C)C)c3nc(-c4c(O)cccc4F)c(F)cc23)C(C)C1 (centres undefined) + Cc1cnc(CNC(=O)c2c(=O)c3ccc(N4CCCN(C)CC4)nc3n3c2sc2ccccc23)cn1
< 0.0316 µM: IC50 (second compound 0.0316 µM) | IC50 (second compound 0.1 µM) | IC50 (second compound 0.316 µM) | IC50 (second compound 1 µM) | IC50 (second compound 3.16 µM) | IC50 (second compound 10 µM)
inactive: viability, T/C [1] 41.2% | viability, T/C [2] 32.1% | viability, T/C [3] 28.1% | viability, T/C [4] 19.9% | viability, T/C [5] 33.4% | viability, T/C [6] 30.6% | viability, T/C [7] 40.4% | viability, T/C [8] 30.4% | viability, T/C [9] 26.7% | viability, T/C [10] 25.7% | viability, T/C [11] 32.6% | viability, T/C [12] 30.6% | viability, T/C [13] 36.8% | viability, T/C [14] 30.4% | viability, T/C [15] 27.2% | viability, T/C [16] 29% | viability, T/C [17] 34% | viability, T/C [18] 33.7% | viability, T/C [19] 29.3% | viability, T/C [20] 28.6% | viability, T/C [21] 30.2% | viability, T/C [22] 28.1% | viability, T/C [23] 35.9% | viability, T/C [24] 37.7% | viability, T/C [25] 32% | viability, T/C [26] 32.4% | viability, T/C [27] 29.8% | viability, T/C [28] 27.9% | viability, T/C [29] 37.3% | viability, T/C [30] 36.4% | viability, T/C [31] 30.5% | viability, T/C [32] 23.3% | viability, T/C [33] 28.9% | viability, T/C [34] 27.8% | viability, T/C [35] 33.5% | viability, T/C [36] 34.2%

COc1cc(C2c3cc4c(cc3C(OC3OC5COC(C)OC5C(O)C3O)C3COC(=O)C23)OCO4)cc(OC)c1O (centres undefined) + Cc1cnc(CNC(=O)c2c(=O)c3ccc(N4CCCN(C)CC4)nc3n3c2sc2ccccc23)cn1
> 10 µM: IC50 (second compound 0.1 µM) | IC50 (second compound 0.316 µM) | IC50 (second compound 1 µM) | IC50 (second compound 3.16 µM) | IC50 (second compound 10 µM)
3.77 µM: IC50 (second compound 0.0316 µM)
inactive: viability, T/C [1] 98.4% | viability, T/C [2] 78.3% | viability, T/C [3] 83.7% | viability, T/C [4] 59.4% | viability, T/C [5] 53.5% | viability, T/C [6] 39.1% | viability, T/C [7] 92.8% | viability, T/C [8] 79.2% | viability, T/C [9] 77.6% | viability, T/C [10] 66.8% | viability, T/C [11] 59.2% | viability, T/C [12] 49.7% | viability, T/C [13] 81.6% | viability, T/C [14] 94.8% | viability, T/C [15] 84% | viability, T/C [16] 80.9% | viability, T/C [17] 71.8% | viability, T/C [18] 58.9% | viability, T/C [19] 81.9% | viability, T/C [20] 92% | viability, T/C [21] 91.4% | viability, T/C [22] 91.4% | viability, T/C [23] 81.1% | viability, T/C [24] 56% | viability, T/C [25] 84.6% | viability, T/C [26] 87.3% | viability, T/C [27] 82.4% | viability, T/C [28] 85.5% | viability, T/C [29] 81.6% | viability, T/C [30] 60% | viability, T/C [31] 86.2% | viability, T/C [32] 80.4% | viability, T/C [33] 85.5% | viability, T/C [34] 93.2% | viability, T/C [35] 85.1% | viability, T/C [36] 52.1%
